The supplement of paper PMC5908809

Experiments:
[1] = test system: normal NK cells expanded with K562-aAPC; assay: percent inhibition of viability; higher = more inhibition; conditions: 72 h, IL-2 2.5 ng/mL
Protocol: (§1)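 Drug sensitivity and resistance testing on K562-aAPC-expanded normal NK cells: 5 concentrations (10-fold steps over a 10,000-fold range), 72 h at 37 °C, viability by CellTiter-Glo normalised to DMSO and benzethonium chloride controls; DSS from the fitted curve.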

[2] = test system: DERL-7 (IL-2 2.5 ng/mL); assay: as above; conditions: 72 h
[3] = test system: IMC-1 (IL-2 20 ng/mL); assay: as above; conditions: 72 h
[4] = test system: KAI3 (IL-2 2.5 ng/mL); assay: as above; conditions: 72 h
[5] = test system: KHYG-1 (IL-2 2.5 ng/mL); assay: as above; conditions: 72 h
[6] = test system: NK-92 (IL-2 2.5 ng/mL); assay: as above; conditions: 72 h
[7] = test system: NK-YS (IL-2 2.5 ng/mL); assay: as above; conditions: 72 h
[8] = test system: NKL (IL-2 2.5 ng/mL); assay: as above; conditions: 72 h
[9] = test system: SNK-6 (IL-2 2.5 ng/mL); assay: as above; conditions: 72 h
[10] = test system: YT (IL-2 2.5 ng/mL); assay: as above; conditions: 72 h
[11] = test system: normal primary NK cells, pool 1 (3 donors) (IL-2 2.5 ng/mL); assay: as above; conditions: 72 h
[12] = test system: normal primary NK cells, pool 1 (3 donors), resting (IL-2 0 ng/mL); assay: as above; conditions: 72 h
[13] = test system: normal primary NK cells, pool 2 (3 donors) (IL-2 2.5 ng/mL); assay: as above; conditions: 72 h
[14] = test system: normal primary NK cells, pool 3 (3 donors) (IL-2 2.5 ng/mL); assay: as above; conditions: 72 h
[15] = test system: normal NK cells expanded with K562-aAPC; assay: drug sensitivity score (DSS) (DSS units); higher = more sensitive; extreme values may be limits of the assay; conditions: 72 h; IL-2 2.5 ng/mL
Protocol: as §1

[16] = test system: DERL-7 (IL-2 2.5 ng/mL); assay: as above; conditions: 72 h
[17] = test system: IMC-1 (IL-2 20 ng/mL); assay: as above; conditions: 72 h
[18] = test system: KAI3 (IL-2 2.5 ng/mL); assay: as above; conditions: 72 h
[19] = test system: KHYG-1 (IL-2 2.5 ng/mL); assay: as above; conditions: 72 h
[20] = test system: NK-92 (IL-2 2.5 ng/mL); assay: as above; conditions: 72 h
[21] = test system: NK-YS (IL-2 2.5 ng/mL); assay: as above; conditions: 72 h
[22] = test system: NKL (IL-2 2.5 ng/mL); assay: as above; conditions: 72 h
[23] = test system: SNK-6 (IL-2 2.5 ng/mL); assay: as above; conditions: 72 h
[24] = test system: YT (IL-2 2.5 ng/mL); assay: as above; conditions: 72 h
[25] = test system: normal primary NK cells, pool 1 (3 donors) (IL-2 2.5 ng/mL); assay: as above; conditions: 72 h
[26] = test system: normal primary NK cells, pool 1 (3 donors), resting (IL-2 0 ng/mL); assay: as above; conditions: 72 h
[27] = test system: normal primary NK cells, pool 2 (3 donors) (IL-2 2.5 ng/mL); assay: as above; conditions: 72 h
[28] = test system: normal primary NK cells, pool 3 (3 donors) (IL-2 2.5 ng/mL); assay: as above; conditions: 72 h

Cc1c(CN2CCN(C(=O)[C@H](C)O)CC2)sc2c(N3CCOCC3)nc(-c3cnc(N)nc3)nc12 [Apitolisib] (max concentration tested 10000 nM)
percent inhibition of viability [%]
Conditions | 1 nM | 10 nM | 100 nM | 1000 nM | 10000 nM
[1] | 2.46 | -0.12 | 17.4 | 39.8 | 85.8
[2] | 3.04 | 1.57 | 29.2 | 78.4 | 92.4
[3] | -4.85 | -5.41 | -12.6 | -55.2 | 8.81
[4] | 0.17 | -2.02 | 17.9 | 39.6 | 65.3
[5] | -2.58 | -0.95 | -1.53 | 18 | 76.4
[6] | 16 | 7.33 | 22.5 | 45.1 | 57.8
[7] | -2.41 | 1.63 | 8.5 | 47.2 | 73.8
[8] | -12 | -7.01 | 2.26 | 53.8 | 65.7
[9] | 13.8 | 9.78 | 15.2 | 21.3 | 45.5
[10] | 0.06 | 0.22 | 4.58 | 47.5 | 71
[11] | -11.8 | -13.1 | 4.5 | 40.1 | 75
[12] | -0.63 | -14.4 | -6.11 | 24.3 | 34.8
[13] | -13.9 | -6.6 | 0.47 | 22.1 | 66.1
[14] | -10.7 | -12.9 | -5.47 | 6.17 | 59.6

Conditions | drug sensitivity score
[15] | 10
[16] | 18
[17] | 0
[18] | 9.5
[19] | 7.06
[20] | 11.3
[21] | 10.2
[22] | 10.3
[23] | 6.63
[24] | 9.84
[25] | 8.91
[26] | 4.44
[27] | 6.81
[28] | 4.24

COC[C@H](NC(=O)c1cnc(C)s1)C(=O)N[C@@H](COC)C(=O)N[C@@H](Cc1ccccc1)C(=O)[C@@]1(C)CO1 [Oprozomib] (max concentration tested 2500 nM)
percent inhibition of viability [%]
Conditions | 0.25 nM | 2.5 nM | 25 nM | 250 nM | 2500 nM
[1] | -1.45 | 0.37 | 40.2 | 101 | 102
[2] | -5.62 | 7.77 | 81.9 | 101 | 101
[3] | -7.29 | -3.63 | 0.39 | 101 | 101
[4] | -8.21 | -2.86 | 52.1 | 105 | 108
[5] | -7.33 | -2.59 | 15.4 | 108 | 110
[6] | -20.8 | 3.65 | 34.1 | 107 | 110
[7] | -6.41 | -1.88 | 43.6 | 106 | 109
[8] | -18 | -8.51 | 12.1 | 107 | 110
[9] | -7.89 | -7.58 | 14.6 | 101 | 101
[10] | -8.11 | -6.26 | 14.6 | 106 | 110
[11] | -9.35 | 5.43 | 36 | 97.7 | 99.8
[12] | -25.2 | 0.23 | 62.4 | 92.9 | 97.7
[13] | -5.27 | 3.49 | 62.8 | 94.6 | 99.5
[14] | -7.05 | -2.21 | 50.4 | 99 | 100

Conditions | drug sensitivity score
[15] | 23.4
[16] | 28.6
[17] | 18.1
[18] | 24.4
[19] | 20.7
[20] | 22.8
[21] | 23.7
[22] | 20.2
[23] | 20.4
[24] | 20.6
[25] | 22
[26] | 25
[27] | 25.4
[28] | 24.2
